From patent publication US20080234310A1, “Methods and Compositions for Slowing Aging” (priority 2003, published 2008)

Tests used:
[1] = test system: ion channels associated with glutamate receptors; assay: Glutamate-induced uptake of 45Ca into rat brain synaptosomes (calcium-blocking properties); type: biochemical; details: glutamate-induced 45Ca uptake, K(43/21); compound 5 μM; 5 min at 30° C.
Protocol: Evaluation of the calcium-blocking properties of the compounds was conducted with P2-fraction of synaptosomes, which were isolated from the brain of newborn (8-11 days) rats according to the protocol described in [Bachurin et al. Neuroprotective and cognition enhancing properties of MK-801 flexible analogs. Structure-activity relationships.//Ann. N.Y. Acad. Sci., 2001, v. 939, pp. 219-235]. In this test, the ability of the compounds to inhibit a specific uptake of calcium ions via ion channels associated with glutamate receptors was determined.
Synaptosomes were placed into the incubation buffer A (132 mM NaCl, 5 mM KCl, 5 mM HEPES) and were kept at 0° C. during the entire experiment. Aliquots of synaptosomes (50 μl) were placed in the media A, containing investigated compounds and a preparation of the radiolabeled calcium, ^45Ca. The calcium uptake was stimulated by the introduction into the media of the 20 μl of the 10 mM solution of glutamate. After a 5 min incubation at 30° C. the reaction was interrupted by a filtration through GF/B filters, which were then triple washed with the cold buffer B (145 mM KCl, 10 mM tris, 5 mM trilon B). Then, filters were subjects for the detection of the radiolabeled calcium. The measurement was conducted using a scintillation counter ‘SL-4000 Intertechnic”. The initial screening was conducted with a concentration of each compound of 5 μM. A specific calcium uptake was calculated using the following equation
where: • Ca1 is a calcium uptake in a control experiment (no glutamate or test compound added); • Ca2 is a calcium uptake in the presence of glutamate only (Glutamate Induced Calcium Uptake—GICU); • Ca3 is a calcium uptake in the presence of a test compound only (no glutamate added); Ca4 is a calcium uptake in the presence of both glutamate and a test compound.

C57/B female mice [2] = assay: Vision disturbances (development of age-related cataract) depending on age and Dimebon consumption; type: in vivo; details: for amount of animals that have cataract: 3 mg/kg daily in water
Protocol: (§1) Experiments were conducted with C57/B female mice, starting from their age of 12 months. Mice were kept on cells, 10 animals per a cell. Both control and experimental group included 50 animals in each group. […] The day-night cycle was 12 hours.
(§2) Prior to the experiment, daily and weekly water consumption by the animals in one cell was measured. Dimebon was added in water in such amount that each animal would consume 3 mg/kg of Dimebon per day in average. Bottles with water containing Dimebon were replaced every 7 days. Animals in the control group were receiving pure water.
(§3) Prior to the experiment, all the animals were weighed, and an average weight was determined in every group, every cell, as well as the weight of all animals in every cell. The condition of skin, hair, and eyes were also determined by visual inspection. […] Evaluation of all these parameters was conducted on a monthly basis.
(§4) Statistics was calculated using Student T-test and ‘ Chi-squared’ criteria.

C57/B female mice [3] = assay: Lifespan: amount of alive animals depending on age, Dimebon in drinking water; type: in vivo; details: for Amount of alive animals: 3 mg/kg daily in water
Protocol: as §1, §2, §3, §4
Evaluation of the parameter of the length of life was conducted employing methods used in demography. This parameter was a probability of death in every age group.

C57/B female mice [4] = assay: Disturbances in skin-hair integument (alopecia) depending on age and Dimebon consumption; type: in vivo; details: for % of animals that have alopecia: 3 mg/kg daily in water
Protocol: as §1, §2, §3, §4

[5] = Dynamics in weight of animals depending on age and Dimebon consumption; type: in vivo, mice; details: for average weight of animals: 3 mg/kg daily in water
Protocol: as §1, §2, §3, §4

With `CCN1CCc2[nH]c3ccccc3c2C1` [Compound 2, 2-ethyl-2,3,4,5-tetrahydro-1H-pyrido(4,3-b)indol] the “% Ca to control” value [1] was 36.5 ± 0.5%.

With “2-methyl-5-(2-(6-methyl-3-pyridyl)-ethyl)-2,3,4,5-tetrahydro-1H-pyrido(4,3-b)indol sesquisulfate monohydrate [Compound 5]” the “% Ca to control” value [1] was 33.5 ± 1.5%.

With `CN1CCc2[nH]c3ccc(Br)cc3c2C1.Cl` [Compound 9, 2-methyl-8-bromo-2,3,4,5-tetrahydro-1H-pyrido(4,3-b)indol hydrochloride] the “% Ca to control” value [1] was 30.0 ± 3.5%.

In the case of `c1ccc(CN2CCc3[nH]c4ccccc4c3C2)cc1` [Compound 3, 2-benzyl-2,3,4,5-tetrahydro-1H-pyrido(4,3-b)indol], the “% Ca to control” value [1] is reported as 28.5 ± 2.5%.

With `CN1CCc2[nH]c3ccccc3c2C1` [Compound 7, 2-methyl-2,3,4,5-tetrahydro-1H-pyrido(4,3-b)indol] the “% Ca to control” value [1] was 35.5 ± 2.5%.

With `Cc1ccc2c(c1)c1c(n2CCc2ccc(C)nc2)CCN(C)C1.Cl.Cl` [Compound 6, 2,8-dimethyl-5-(2-(6-methyl-3-pyridyl)-ethyl)-2,3,4,5-tetrahydro-1H-pyrido(4,3-b)indol dihydrochloride] the “amount of animals that had cataract versus control group” value (C57/B female mice [2]; 3 mg/kg daily, P<0.05 for 13 to 20 months old mice) was “significantly less”, the “amount of animals that have cataract” value (C57/B female mice [2]; age 12 months (start)) was 0% and the “amount of animals that have cataract” value (C57/B female mice [2]; age 13 months) was 0%. The “amount of animals that have cataract” value (C57/B female mice [2]; age 14 months) was 0%, the “amount of animals that have cataract” value (C57/B female mice [2]; age 15 months) was 4% and the “amount of animals that have cataract” value (C57/B female mice [2]; age 16 months) was 6%. For the same compound, the “amount of animals that have cataract” value (C57/B female mice [2]; age 17 months) was 6%, the “amount of animals that have cataract” value (C57/B female mice [2]; age 18 months) was 10% and the “amount of animals that have cataract” value (C57/B female mice [2]; age 19 months) was 13%. For the same compound, the “amount of animals that have cataract” value (C57/B female mice [2]; age 20 months) was 17%, the “amount of animals that have cataract” value (C57/B female mice [2]; age 21 months) was 25% and the “% Ca to control” value [1] was 48.5 ± 2.5%. The “Amount of alive animals” value (C57/B female mice [3]; age 12 months (start), 50 animals per group) was 50, the “Amount of alive animals” value (C57/B female mice [3]; age 13 months) was 50 and the “Amount of alive animals” value (C57/B female mice [3]; age 14 months) was 49. For the same compound, the “Amount of alive animals” value (C57/B female mice [3]; age 15 months) was 48, the “Amount of alive animals” value (C57/B female mice [3]; age 16 months) was 47 and the “Amount of alive animals” value (C57/B female mice [3]; age 17 months) was 47. The “Amount of alive animals” value (C57/B female mice [3]; age 18 months) was 42, the “Amount of alive animals” value (C57/B female mice [3]; age 19 months) was 39 and the “Amount of alive animals” value (C57/B female mice [3]; age 20 months) was 35. The “Amount of alive animals” value (C57/B female mice [3]; age 21 months) was 32, the “Amount of alive animals” value (C57/B female mice [3]; age 22 months) was 28 and the “Amount of alive animals” value (C57/B female mice [3]; age 23 months) was 25. The “Amount of alive animals” value (C57/B female mice [3]; age 24 months) was 18, the “Amount of alive animals” value (C57/B female mice [3]; age 25 months) was 11 and the “probability of death versus control group” value (C57/B female mice [3]; all age groups, 3 mg/kg daily, significant (P<0.05) at 20-23 months) was “lower”. For the same compound, the “% of animals that have alopecia” value (C57/B female mice [4]; age 12 months (start)) was 0%, the “% of animals that have alopecia” value (C57/B female mice [4]; age 13 months) was 0% and the “% of animals that have alopecia” value (C57/B female mice [4]; age 14 months) was 2%. The “% of animals that have alopecia” value (C57/B female mice [4]; age 15 months) was 6%, the “% of animals that have alopecia” value (C57/B female mice [4]; age 16 months) was 10% and the “% of animals that have alopecia” value (C57/B female mice [4]; age 17 months) was 20%. For the same compound, the “% of animals that have alopecia” value (C57/B female mice [4]; age 18 months) was 12%, the “% of animals that have alopecia” value (C57/B female mice [4]; age 19 months) was 14% and the “% of animals that have alopecia” value (C57/B female mice [4]; age 20 months) was 34%. For the same compound, the “% of animals that have alopecia” value (C57/B female mice [4]; age 21 months) was 35%, the “development of non-fatal pathologies, such as loss of vision and alopecia” value (C57/B female mice [4]; old animals fed Dimebon 3 mg/kg daily, alopecia difference 13th-21st month P<0.05) was “slowing of the development” and the age-related weight depletion ([5]; 3 mg/kg daily, depletion only in 23 month old animals, variation versus control not significant (P>0.05)) was “No weight depletion was observed”. The “average weight of animals” value ([5]; age 12 months (start)) was 24.7 g, the “average weight of animals” value ([5]; age 13 months) was 24.7 g and the “average weight of animals” value ([5]; age 14 months) was 24.7 g. For the same compound, the “average weight of animals” value ([5]; age 15 months) was 26 g, the “average weight of animals” value ([5]; age 16 months) was 25.5 g and the “average weight of animals” value ([5]; age 17 months) was 24.7 g. For the same compound, the “average weight of animals” value ([5]; age 18 months) was 25.5 g, the “average weight of animals” value ([5]; age 19 months) was 26 g and the “average weight of animals” value ([5]; age 20 months) was 26 g. For the same compound, the “average weight of animals” value ([5]; age 21 months) was 25.6 g, the “average weight of animals” value ([5]; age 22 months) was 25.1 g and the “average weight of animals” value ([5]; age 23 months) was 24.7 g. For the same compound, the “average weight of animals” value ([5]; age 24 months) was 24 g and the “average weight of animals” value ([5]; age 25 months) was 23.7 g.

In the case of `Cc1ccc2c(c1)c1c(n2Cc2ccccc2)CCN(C)C1.Cl.Cl` [Compound 4, 2,8-dimethyl-5-benzyl-2,3,4,5-tetrahydro-1H-pyrido(4,3-b)indol dihydrochloride], the “% Ca to control” value [1] is reported as 22.5 ± 3.5%.

With “2-dimethyl-2,3,4,5-tetrahydro-1H-pyrido(4,3-b)indol methyl iodide [Compound 8]” the “% Ca to control” value [1] was 18.0 ± 2.5%.
